Measurements as given in patent US20090221559A1 (priority 2005, published 2009).
Where two headings read alike, the source gives them in different places.

Columns and labels:
[1] = test system: HCV replicon RNA replication in Huh-7 luc/neo (Huh-Luc) cells; assay: HCV replicon assay (stable replicon cell reporter assay, luciferase read-out); format: cell-based, HCV type 1b
Outline: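 Huh-7 cells stably carry a bicistronic HCV 1b NS3-NS5B subgenomic replicon with firefly luciferase and neo markers. Cells were plated with compound across a concentration range and incubated three days. Replication was measured as luciferase activity to give dose-response curves.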

[2] = biological target: T1, HCV NS5B polymerase (His-tagged, C-terminal 21 amino acid deleted NS5B, HC-J4) (Hepatitis C virus genotype 1b, UniProt O92972); assay: NS5b polymerase assay (biochemical RdRp assay, 3H-GTP incorporation, SPA beads); parameters: species or system HCV genotype 1b
T1 construct: The cDNA encoding NS5B amino acid 1-570 (HC-J4, genotype 1b); His tag (His6, from pET-21b) (C); made in house; host or cells: E. coli BL21 (DE3)
Outline: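 His-tagged C-terminal-21-aa-deleted NS5B (genotype 1b, HC-J4) at 200 nM was preincubated 15 min at RT with compound on 5′-biotinylated oligo(rG13)/poly(rC) template/primer before NTPs. Reaction with 600 nM GTP plus 0.1 μCi 3H-GTP and 5 mM MgCl2 in Tris pH 7.5 ran 2 h at 25 °C. Stopped with EDTA/SPA beads for incorporation counting.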

[3] = Hepatitis C virus, Huh-7, 72 h, read-out: Replicon Assay EC50, Huh-Luc cells, three days incubation, luciferase activity
[4] = NS5B Polymerase Assay IC50, 200 nM enzyme, 3H-GTP incorporation, 2 h at 25° C.
[5] = Huh-Luc cells, three days incubation, luciferase activity, read-out: Replicon Assay EC50
[6] = 200 nM enzyme, 3H-GTP incorporation, 2 h at 25° C., read-out: NS5B Polymerase Assay IC50
[7] = Hepatitis C virus, Huh-7, 72 h, read-out: Replicon Assay EC50 (μM), Huh-Luc cells, incubation of three days, luciferase activity
[8] = NS5B Polymerase Assay IC50 (μM)

T1 sequence (O92972 2417-3000, looked up, stated change not applied): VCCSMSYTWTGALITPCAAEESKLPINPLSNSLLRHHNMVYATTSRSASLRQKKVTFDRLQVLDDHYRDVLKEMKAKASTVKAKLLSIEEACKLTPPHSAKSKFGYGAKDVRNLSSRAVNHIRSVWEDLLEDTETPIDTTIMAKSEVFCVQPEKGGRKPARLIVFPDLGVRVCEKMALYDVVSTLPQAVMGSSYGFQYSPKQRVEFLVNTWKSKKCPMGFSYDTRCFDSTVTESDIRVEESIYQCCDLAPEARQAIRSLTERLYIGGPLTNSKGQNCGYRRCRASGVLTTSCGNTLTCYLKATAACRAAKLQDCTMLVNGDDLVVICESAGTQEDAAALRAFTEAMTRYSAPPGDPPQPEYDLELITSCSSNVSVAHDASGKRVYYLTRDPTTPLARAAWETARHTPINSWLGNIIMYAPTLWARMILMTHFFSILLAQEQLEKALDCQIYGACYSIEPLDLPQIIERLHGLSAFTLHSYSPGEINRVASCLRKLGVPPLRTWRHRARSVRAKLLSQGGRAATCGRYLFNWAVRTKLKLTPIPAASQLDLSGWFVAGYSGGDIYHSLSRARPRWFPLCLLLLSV

| Structure (SMILES) | EC50 [1, 7] | IC50 [2, 8] | further results |
| --- | --- | --- | --- |
| O=C1CC(c2cccc([N+](=O)[O-])c2)CC2=C1C(c1ccco1)N(C(=O)C(F)(F)F)c1ccccc1N2 (stereo not shown) [compound 296] |  |  | EC50 [1, 3]: 18.3 µM; IC50 [2, 4]: > 42.7 µM |
| O=C1CC(c2ccco2)CC2=C1C(c1ccco1)N(C(=O)C(F)(F)F)c1ccccc1N2 (stereo not shown) [compound 297] |  |  | EC50 [1, 3]: 23.6 µM; IC50 [2, 4]: > 42.7 µM |
| COc1ccc(C2CC(=O)C3=C(C2)Nc2ccccc2N(C(C)=O)C3c2ccco2)cc1 (stereo not shown) [compound 298] |  |  | EC50 [1, 5]: > 32 µM; IC50 [2, 6]: > 42.7 µM |
| CC(=O)N1c2ccccc2NC2=C(C(=O)CC(c3ccccc3OCc3ccccc3)C2)C1C(Br)=Cc1ccccc1 (stereo not shown) [compound 300] |  |  | EC50 [1, 5]: 0.706 µM; IC50 [2, 6]: > 133 µM |
| COc1cc2c(cc1OC)N(C(C)=O)C(c1ccc(Cl)cc1Cl)C1=C(CC(C)(C)CC1=O)N2 (stereo not shown) [compound 309, 10-acetyl-7,8-dimethoxy-11-(2,4-dichlorophenyl)-3,3-dimethyl-2,3,4,5,10,11-hexahydro-1H-dibenzo[b,e][1,4]diazepin-1-one] |  |  | EC50 [1, 3]: 39.6 µM; IC50 [2, 4]: > 133 µM |
| CC(=O)N1c2cc(F)c(F)cc2NC2=C(C(=O)CC(C)(C)C2)C1c1ccc(Cl)cc1Cl (stereo not shown) [compound 310, 10-acetyl-7,8-difluoro-11-(2,4-dichlorophenyl)-3,3-dimethyl-2,3,4,5,10,11-hexahydro-1H-dibenzo[b,e][1,4]diazepin-1-one] |  |  | EC50 [1, 3]: 16.4 µM; IC50 [2, 4]: 14.5 µM |
| CC(=O)N1c2cccc(Br)c2NC2=C(C(=O)CC(C)(C)C2)C1c1ccc(Cl)cc1Cl (stereo not shown) [compound 312] |  |  | EC50 [1, 3]: 7.81 µM; IC50 [2, 4]: 6.11 µM |
| CC(=O)N1c2c(C)cccc2NC2=C(C(=O)CC(C)(C)C2)C1c1ccc(Cl)cc1Cl (stereo not shown) [compound 314] |  |  | EC50 [1, 3]: 3 µM; IC50 [2, 4]: 4.43 µM |
| CC(=O)N1c2cccc(C#N)c2NC2=C(C(=O)CC(C)(C)C2)C1c1ccc(Cl)cc1Cl (stereo not shown) [compound 316] |  |  | EC50 [1, 3]: 15.4 µM; IC50 [2, 4]: 6.97 µM |
| CCCCOc1cccc2c1NC1=C(C(=O)CC(C)(C)C1)C(c1ccc(Cl)cc1Cl)N2C(C)=O (stereo not shown) [compound 317] |  |  | EC50 [1, 3]: 5.75 µM; IC50 [2, 4]: > 133 µM |
| COc1cccc2c1NC1=C(C(=O)CC(C)(C)C1)C(c1ccc(Cl)cc1Cl)N2C(C)=O (stereo not shown) [compound 320] |  |  | EC50 [1, 3]: 33 µM; IC50 [2, 4]: 6.77 µM |
| COc1ccc(C2CC(=O)C3=C(C2)Nc2ccccc2NC3c2ccccc2C(F)(F)F)cc1 (stereo not shown) [compound 324] | 18.5 µM | > 42.6 µM |  |
| O=C1CC(c2ccccc2)CC2=C1C(c1ccc(Cl)cc1)Nc1ccccc1N2 (stereo not shown) [compound 325] | 16.3 µM | > 42.6 µM |  |
| COc1ccc(C2CC(=O)C3=C(C2)Nc2ccccc2NC3c2cccc(OCc3ccccc3)c2)cc1 (stereo not shown) [compound 326] | 4.69 µM | > 33.3 µM |  |
| COc1ccc(C2CC(=O)C3=C(C2)Nc2ccccc2NC3c2cccc(F)c2)cc1 (stereo not shown) [compound 327] | 12.5 µM | > 33.3 µM |  |
| COc1ccc(C2CC(=O)C3=C(C2)Nc2ccccc2NC3c2ccc(N(C)C)cc2)cc1 (stereo not shown) [compound 328] | 22.7 µM | > 42.7 µM |  |
| COc1ccc(C2CC(=O)C3=C(C2)Nc2ccccc2NC3c2ccc(C(F)(F)F)cc2)cc1 (stereo not shown) [compound 329] | 11.1 µM | > 33.3 µM |  |
| COc1cccc(C2Nc3ccccc3NC3=C2C(=O)CC(c2ccccc2)C3)c1 (stereo not shown) [compound 330] | 23.2 µM | > 42.7 µM |  |
| COc1ccc(C2CC(=O)C3=C(C2)Nc2ccccc2NC3c2cccc(Oc3ccccc3)c2)cc1 (stereo not shown) [compound 331] | 7.44 µM | > 42.7 µM |  |

| Structure (SMILES) | EC50 [1, 7] | IC50 [2, 8] | further results |
| --- | --- | --- | --- |
| CCOc1ccc(C2Nc3ccccc3NC3=C2C(=O)CC(c2ccc(OC)cc2)C3)cc1 (stereo not shown) [compound 332] | 9.74 µM | > 42.7 µM |  |
| COc1ccc(C2CC(=O)C3=C(C2)Nc2ccccc2NC3c2cc(Br)ccc2OC)cc1 (stereo not shown) [compound 335] | 11.9 µM | > 42.7 µM |  |
| COc1ccc(C2CC(=O)C3=C(C2)Nc2ccccc2NC3c2cc(OC)ccc2OC)cc1 (stereo not shown) [compound 336] | 13.8 µM | > 42.7 µM |  |
| O=C1CC(c2ccc(Cl)cc2)CC2=C1C(c1cccc([N+](=O)[O-])c1)Nc1ccccc1N2 (stereo not shown) [compound 337] | 17.5 µM | > 42.7 µM |  |
| CCCCOc1ccccc1C1Nc2ccccc2NC2=C1C(=O)CC(c1ccccc1)C2 (stereo not shown) [compound 338] | 16.9 µM | > 42.7 µM |  |
| COc1cc(C2Nc3ccccc3NC3=C2C(=O)CC(c2ccccc2)C3)cc(OC)c1OC (stereo not shown) [compound 339] | 9.15 µM | > 42.7 µM |  |
| O=C1CC(c2ccc(Cl)cc2)CC2=C1C(c1ccccc1Cl)Nc1ccccc1N2 (stereo not shown) [compound 340] | 5.09 µM | > 42.7 µM |  |
| COc1cc(C2Nc3ccccc3NC3=C2C(=O)CC(c2ccc(Cl)cc2)C3)cc(Br)c1O (stereo not shown) [compound 342] | 4.19 µM | > 42.7 µM |  |
| O=C1CC(c2ccccc2)CC2=C1C(c1ccc(C(F)(F)F)cc1)Nc1ccccc1N2 (stereo not shown) [compound 343] | 11 µM | > 42.7 µM |  |
| Cc1ccc(C2Nc3ccccc3NC3=C2C(=O)CC(c2ccccc2)C3)cc1 (stereo not shown) [compound 344] | 21.6 µM | > 42.7 µM |  |
| O=C1CC(c2ccccc2)CC2=C1C(c1ccccc1Br)Nc1ccccc1N2 (stereo not shown) [compound 345] | 21 µM | > 42.7 µM |  |
| O=C1CC(c2ccc(Cl)cc2)CC2=C1C(c1cccc(Cl)c1Cl)Nc1ccccc1N2 (stereo not shown) [compound 346] | 24.6 µM | > 42.7 µM |  |
| COc1cccc(C2Nc3ccccc3NC3=C2C(=O)CC(c2ccccc2)C3)c1OC (stereo not shown) [compound 347] | 20.7 µM | > 42.7 µM |  |
| COc1cccc(C2Nc3ccccc3NC3=C2C(=O)CC(c2ccc(Cl)cc2)C3)c1OC (stereo not shown) [compound 348] | 4.48 µM | 29.6 µM |  |
| O=C1CC(c2ccc(Cl)cc2)CC2=C1C(c1ccccc1C(F)(F)F)Nc1ccccc1N2 (stereo not shown) [compound 349] | 2.86 µM | > 42.7 µM |  |
| O=C1CC(c2ccc(Cl)cc2)CC2=C1C(c1cccc(Cl)c1)Nc1ccccc1N2 (stereo not shown) [compound 350] | 5.21 µM | 25.1 µM |  |
| COc1ccc(C2Nc3ccccc3NC3=C2C(=O)CC(c2ccc(Cl)cc2)C3)cc1OC (stereo not shown) [compound 352] | 9.61 µM | > 42.7 µM |  |
| CCOc1cc(C2Nc3ccccc3NC3=C2C(=O)CC(c2ccc(Cl)cc2)C3)cc(Br)c1O (stereo not shown) [compound 353] | 5.3 µM | > 42.7 µM |  |
| Cc1cccc(C2Nc3ccccc3NC3=C2C(=O)CC(c2ccccc2)C3)c1 (stereo not shown) [compound 354] | 20.5 µM | > 42.7 µM |  |

| Structure (SMILES) | EC50 [1, 7] | IC50 [2, 8] | further results |
| --- | --- | --- | --- |
| O=C1CC(c2ccc(Cl)cc2)CC2=C1C(c1ccc(Cl)c(Cl)c1)Nc1ccccc1N2 (stereo not shown) [compound 355] | 5.48 µM | > 42.7 µM |  |
| COc1ccc(OC)c(C2Nc3ccccc3NC3=C2C(=O)CC(c2ccc(Cl)cc2)C3)c1 (stereo not shown) [compound 356] | 16.1 µM | > 42.7 µM |  |
| COc1ccc(C2CC(=O)C3=C(C2)Nc2ccccc2NC3c2cccc(Cl)c2Cl)cc1 (stereo not shown) [compound 357] | 7.01 µM | > 42.7 µM |  |
| Cc1ccc(C2Nc3ccccc3NC3=C2C(=O)CC(c2ccccc2)C3)cc1[N+](=O)[O-] (stereo not shown) [compound 358] | 20.4 µM | > 42.7 µM |  |
| COc1ccc(C2CC(=O)C3=C(C2)Nc2ccccc2NC3c2ccc(C)c([N+](=O)[O-])c2)cc1 (stereo not shown) [compound 359] | 7.33 µM | > 42.7 µM |  |
| COc1cccc(C2Nc3ccccc3NC3=C2C(=O)CC(c2ccc(Cl)cc2)C3)c1 (stereo not shown) [compound 360] | 11.2 µM | > 42.7 µM |  |
| O=C1CC(c2ccccc2)CC2=C1C(c1cccc(Oc3ccccc3)c1)Nc1ccccc1N2 (stereo not shown) [compound 361] | 6.65 µM | > 42.7 µM |  |
| CSc1ccc(C2Nc3ccccc3NC3=C2C(=O)CC(c2ccccc2)C3)cc1 (stereo not shown) [compound 362] | 19.3 µM | 30.6 µM |  |
| CCN(CC)c1ccc(C2Nc3ccccc3NC3=C2C(=O)CC(c2ccc(OC)cc2)C3)cc1 (stereo not shown) [compound 363] | 25.8 µM | > 42.7 µM |  |
| CN(C)c1ccc(C2Nc3ccccc3NC3=C2C(=O)CC(c2ccc(Cl)cc2)C3)cc1 (stereo not shown) [compound 364] | 20.8 µM | > 42.7 µM |  |
| O=C1CC(c2ccccc2)CC2=C1C(c1ccccc1OCc1ccccc1)Nc1ccccc1N2 (stereo not shown) [compound 365] | 5.24 µM | 27.3 µM |  |
| O=C1CC(c2ccc(Cl)cc2)CC2=C1C(c1ccccc1OCc1ccccc1)Nc1ccccc1N2 (stereo not shown) [compound 366] | 5.31 µM | > 42.7 µM |  |
| CC(C)c1ccc(C2Nc3ccccc3NC3=C2C(=O)CC(c2ccccc2)C3)cc1 (stereo not shown) [compound 367] | 24.6 µM | > 42.7 µM |  |
| CSc1ccc(C2Nc3ccccc3NC3=C2C(=O)CC(c2ccc4c(c2)OCO4)C3)cc1 (stereo not shown) [compound 368] | 14.9 µM | > 42.7 µM |  |
| COc1ccc(C2CC(=O)C3=C(C2)Nc2ccccc2NC3c2ccccc2OC)cc1OC (stereo not shown) [compound 369] | 10 µM | > 42.7 µM |  |
| COc1ccc(C2CC(=O)C3=C(C2)Nc2ccccc2NC3c2ccccc2OC(C)C)cc1OC (stereo not shown) [compound 370] | 3.43 µM | > 42.7 µM |  |
| COc1ccc(OC)c(C2Nc3ccccc3NC3=C2C(=O)CC(c2ccc(OC)c(OC)c2)C3)c1 (stereo not shown) [compound 371] | 3.74 µM | > 42.7 µM |  |
| COc1ccc(C2CC(=O)C3=C(C2)Nc2ccccc2NC3c2ccc(OC)cc2OC)cc1 (stereo not shown) [compound 372] | 1.94 µM | > 42.7 µM |  |
